These results are taken from publication PMC10788917 (Journal of Medicinal Chemistry, 2023).

Numbering of substitutions follows the chain as printed. Some results are limits rather than exact numbers.

Common to all, as to assay: HDAC8 mutant biochemical assay
In experiment [1] the target is T1, HDAC8 Cys102Ser/Cys153Ser/Cys125Ser (Homo sapiens, UniProt Q9BY41, C102S/C125S/C153S).
T1 construct: made in house
T1 sequence (Q9BY41 1-377 C102S/C125S/C153S): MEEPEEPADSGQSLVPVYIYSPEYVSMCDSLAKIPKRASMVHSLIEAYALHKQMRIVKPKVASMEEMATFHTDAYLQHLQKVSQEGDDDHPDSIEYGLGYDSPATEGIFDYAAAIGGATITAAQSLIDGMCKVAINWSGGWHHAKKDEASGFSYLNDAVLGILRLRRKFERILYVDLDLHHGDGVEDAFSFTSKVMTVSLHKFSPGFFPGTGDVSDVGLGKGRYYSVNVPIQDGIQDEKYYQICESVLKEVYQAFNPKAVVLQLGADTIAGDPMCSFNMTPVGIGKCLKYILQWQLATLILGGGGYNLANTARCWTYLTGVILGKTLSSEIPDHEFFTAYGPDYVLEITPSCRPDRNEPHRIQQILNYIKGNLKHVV
The note with it: read-out: IC50 [μM] @ 100 nM HDAC8: C Cys102Ser/Cys153Ser/Cys125Ser, 1 h preincubation. Here is the method: (§1) HDAC8 mutant variants were generated, produced, and further purified as described previously.[32] Cysteines 28 and 314 were exchanged with serine using the following primer pairs: HD8_C28S_for, […]; HD8_C28S_rev, […]; HD8_C314S_for, […]; HD8_C314S_rev, […].
(§2) The enzyme activity assay was performed in assay buffer [25 mM Tris-HCl (pH 8.0), 50 mM NaCl, and 0.001% (v/v) Pluronic F-68] in black half-area 96-well microplates (Greiner Bio-One). For the initial screening, 10 nM HDAC8 was preincubated with the indicated compounds at 250 μM for 2 h at 30 °C. […] The reaction was initiated by the addition of 20 μM Boc-Lys(TFA)-AMC (Bachem). After substrate conversion at 30 °C for 15 min for HDAC8 and 1 h for HDAC8 mutants and HDAC4, the reaction was stopped by adding 1.67 μM suberoylanilide trifluoromethylketone (SATFMK). The deacetylated substrate was cleaved with 0.42 mg/mL trypsin to release fluorescent 7-amino-4-methylcoumarin (AMC), which was detected with a microplate reader (PHERAstar FS […]) with fluorescence excitation at 360 nm and emission at 460 nm. IC50 values were calculated by generating dose–response curves in GraphPad Prism 6 and fitting those to a four-parameter logistic model.

Experiment [2] addresses T2, HDAC8 Cys102Ser/Cys153Ser/Cys275Ser (Homo sapiens, UniProt Q9BY41, C102S/C153S/C275S).
T2 construct: made in house
T2 sequence (Q9BY41 1-377 C102S/C153S/C275S): T1 sequence (Q9BY41 1-377 C102S/C125S/C153S) with S125C, C275S
Conditions: read-out: IC50 [μM] @ 100 nM HDAC8: F Cys102Ser/Cys153Ser/Cys275Ser, 1 h preincubation. Here is the method: as §1, §2

Experiment [3] concerns the target T3, HDAC8 Cys102Ser/Cys153Ser/Cys131Ser (Homo sapiens, UniProt Q9BY41, C102S/C131S/C153S).
T3 construct: made in house
T3 sequence (Q9BY41 1-377 C102S/C131S/C153S): T1 sequence (Q9BY41 1-377 C102S/C125S/C153S) with S125C, C131S
The note with it: read-out: IC50 [μM] @ 100 nM HDAC8: D Cys102Ser/Cys153Ser/Cys131Ser, 1 h preincubation. Here is the method: as §1, §2

Experiment [4] addresses T4, HDAC8 Cys102Ser/Cys153Ser/Cys352Ser (Homo sapiens, UniProt Q9BY41, C102S/C153S/C352S).
T4 construct: made in house
T4 sequence (Q9BY41 1-377 C102S/C153S/C352S): T1 sequence (Q9BY41 1-377 C102S/C125S/C153S) with S125C, C352S
The note with it: read-out: IC50 [μM] @ 100 nM HDAC8: I Cys102Ser/Cys153Ser/Cys352Ser, 1 h preincubation. Here is the method: as §1, §2

`C#Cc1cc[n+](C)cc1` [C6+]: the IC50 came out at 15 ± 1 µM in experiment [1], 4.2 ± 0.3 µM in experiment [2], 3.3 ± 0.3 µM in experiment [3] and 9 ± 1 µM in experiment [4].

On to `C#Cc1nccc[n+]1C` [D6+], for which the IC50 in experiment [1] is > 130 µM; in experiment [2], 107 ± 10 µM; in experiment [3], 93 ± 13 µM; in experiment [4] it was 118 ± 13 µM.

`C[n+]1ccc(I)cc1` [C3+]: the IC50 in experiment [1] was 81 ± 4 µM; in experiment [2], 17 ± 1 µM; in experiment [3], 36 ± 8 µM; in experiment [4] it was 29 ± 2 µM.

As for `C[n+]1cccnc1I` [D3+], the IC50 worked out at 14 ± 1 µM in experiment [1], 16 ± 2 µM in experiment [2], 8 ± 1 µM in experiment [3] and 11 ± 1 µM in experiment [4].

As to `C[n+]1cncc(I)c1` [F3+], the values for the IC50 in experiment [2], in experiment [3] and in experiment [4] were 15 µM, 15 µM and 29 ± 6 µM, respectively.

As for `C[n+]1cccnc1Cl` [D1+], the IC50 was 82 ± 4 µM in experiment [1], 13 ± 3 µM in experiment [2], 49 ± 6 µM in experiment [3] and 41 ± 7 µM in experiment [4].

`C[n+]1cccnc1Br` [D2+]: the IC50 in experiment [1] was 52 ± 7 µM; in experiment [2], 35 ± 14 µM; in experiment [3] it was 18 ± 4 µM; in experiment [4], 15 ± 2 µM.

`C[n+]1cncc(Br)c1` [F2+]: the IC50 in experiment [1] is 56 ± 5 µM; in experiment [2], 19 ± 4 µM; in experiment [3], 25 ± 2 µM; in experiment [4] it was 15 ± 1 µM.

`C[n+]1ccccc1I` [A3+]: the IC50 in experiment [1] was determined as 65 ± 6 µM; in experiment [2] it was 24 ± 3 µM; in experiment [3], 42 ± 4 µM; in experiment [4] it was 36 ± 2 µM.

As for `C#Cc1c[n+](C)ccn1` [G6+], the IC50 in experiment [1] worked out at 126 ± 17 µM; in experiment [2] it was 64 ± 16 µM; in experiment [3], 55 ± 12 µM; in experiment [4] it was 59 ± 3 µM.
